PubChem BioAssay (NCI)
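Cells were grown in 96-well plates and exposed to each compound for 48 hours at five concentrations; endpoints were interpolated linearly between bracketing concentrations, or set to the highest concentration if not reached. The concentration for 50% growth inhibition is given as GI50. At the TGI there is no net growth.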 Where a SMILES comes first, the peptide text is derived from it. [ ]: non-standard residue; d: D form. The star is where a group is joined. hSer = N[CH](CCO)C(=O)O; Boc = CC(C)(C)OC(=O)*; Bn = c1ccc(C*)cc1

Key:
Assay in all cases: NCI anticancer screen, dose series, 48 h
SW-620 colon = test system: SW-620 colon
KM12 colon = test system: KM12 colon
SK-MEL-2 melanoma = test system: SK-MEL-2 melanoma
M14 melanoma = test system: M14 melanoma
MDA-MB-435 = test system: MDA-MB-435
CAKI-1 renal = test system: CAKI-1 renal
NCI-H522 lung = test system: NCI-H522 lung
SF-268 CNS = test system: SF-268 CNS
UO-31 renal = test system: UO-31 renal
COLO 205 colon = test system: COLO 205 colon
NCI-H23 lung = test system: NCI-H23 lung
PC-3 prostate = test system: PC-3 prostate
RXF 393 renal = test system: RXF 393 renal
HS 578T breast = test system: HS 578T breast
U251 CNS = test system: U251 CNS
SR leukemia = test system: SR leukemia
SNB-19 CNS = test system: SNB-19 CNS
SNB-75 CNS = test system: SNB-75 CNS
MALME-3M melanoma = test system: MALME-3M melanoma
HOP-92 NSCLC = test system: HOP-92 NSCLC
MCF7 breast = test system: MCF7 breast
OVCAR-8 ovarian = test system: OVCAR-8 ovarian
SK-MEL-28 melanoma = test system: SK-MEL-28 melanoma
SF-539 CNS = test system: SF-539 CNS
LOX IMVI melanoma = test system: LOX IMVI melanoma
A498 renal = test system: A498 renal
HCT-15 colon = test system: HCT-15 colon
TK-10 renal = test system: TK-10 renal
OVCAR-5 ovarian = test system: OVCAR-5 ovarian
UACC-257 melanoma = test system: UACC-257 melanoma
786-0 renal = test system: 786-0 renal
CCRF-CEM leukemia = test system: CCRF-CEM leukemia
HOP-62 NSCLC = test system: HOP-62 NSCLC
HCT-116 colon = test system: HCT-116 colon
DU-145 prostate = test system: DU-145 prostate
MDA-MB-231 breast = test system: MDA-MB-231 breast
HL-60(TB) leukemia = test system: HL-60(TB) leukemia
SN12C renal = test system: SN12C renal
MOLT-4 leukemia = test system: MOLT-4 leukemia
EKVX NSCLC = test system: EKVX NSCLC
SK-MEL-5 melanoma = test system: SK-MEL-5 melanoma
SF-295 CNS = test system: SF-295 CNS
UACC-62 melanoma = test system: UACC-62 melanoma
OVCAR-4 ovarian = test system: OVCAR-4 ovarian
NCI-H460 lung = test system: NCI-H460 lung
OVCAR-3 ovarian = test system: OVCAR-3 ovarian
K-562 leukemia = test system: K-562 leukemia
IGROV1 ovarian = test system: IGROV1 ovarian
ACHN renal = test system: ACHN renal
RPMI-8226 leukemia = test system: RPMI-8226 leukemia
T-47D breast = test system: T-47D breast
NCI-H226 lung = test system: NCI-H226 lung
HT29 colon = test system: HT29 colon
HCC-2998 colon = test system: HCC-2998 colon
A549 NSCLC = test system: A549 NSCLC
NCI/ADR-RES ovarian = test system: NCI/ADR-RES ovarian
SK-OV-3 ovarian = test system: SK-OV-3 ovarian
BT-549 breast = test system: BT-549 breast

CCCCCCCCCCCCCCCCNCCC[C@@H](C)[C@H]1CC[C@H]2[C@@H]3[C@H](OCCCN)C[C@@H]4C[C@H](OCCCN)CC[C@]4(C)[C@H]3C[C@H](OCCCN)[C@]12C
GI50 (SW-620 colon): 2180 nM
TGI (SW-620 colon): 4940 nM
GI50 (KM12 colon): 2180 nM
TGI (KM12 colon): 5030 nM
GI50 (SK-MEL-2 melanoma): 2480 nM
TGI (SK-MEL-2 melanoma): 5350 nM
GI50 (M14 melanoma): 2500 nM
TGI (M14 melanoma): 5650 nM
GI50 (MDA-MB-435): 2280 nM
TGI (MDA-MB-435): 6570 nM
GI50 (CAKI-1 renal): 1900 nM
TGI (CAKI-1 renal): 4580 nM
GI50 (NCI-H522 lung): 2250 nM
TGI (NCI-H522 lung): 5360 nM
GI50 (SF-268 CNS): 2170 nM
TGI (SF-268 CNS): 4950 nM
GI50 (UO-31 renal): 2530 nM
TGI (UO-31 renal): 5210 nM
GI50 (COLO 205 colon): 2520 nM
TGI (COLO 205 colon): 5130 nM
GI50 (NCI-H23 lung): 2390 nM
TGI (NCI-H23 lung): 5400 nM

CCSc1nc(=S)n(-c2ccccc2)c(C)c1C(C)=O
TGI (PC-3 prostate): > 100000 nM
TGI (RXF 393 renal): > 100000 nM
TGI (HS 578T breast): > 100000 nM
TGI (U251 CNS): > 100000 nM
TGI (SR leukemia): > 100000 nM
TGI (SNB-19 CNS): > 100000 nM
TGI (SNB-75 CNS): > 100000 nM
TGI (SW-620 colon): > 100000 nM
TGI (MALME-3M melanoma): > 100000 nM
TGI (KM12 colon): > 100000 nM
TGI (HOP-92 NSCLC): > 100000 nM
TGI (SK-MEL-2 melanoma): > 100000 nM
TGI (M14 melanoma): > 100000 nM
TGI (MCF7 breast): > 100000 nM
TGI (OVCAR-8 ovarian): > 100000 nM
TGI (SK-MEL-28 melanoma): > 100000 nM
TGI (MDA-MB-435): > 100000 nM
TGI (SF-539 CNS): > 100000 nM
TGI (LOX IMVI melanoma): > 100000 nM
TGI (A498 renal): > 100000 nM
TGI (HCT-15 colon): > 100000 nM
TGI (TK-10 renal): > 100000 nM
TGI (OVCAR-5 ovarian): > 100000 nM
TGI (UACC-257 melanoma): > 100000 nM
TGI (786-0 renal): > 100000 nM
TGI (CAKI-1 renal): > 100000 nM
TGI (CCRF-CEM leukemia): > 100000 nM
TGI (HOP-62 NSCLC): > 100000 nM
TGI (HCT-116 colon): > 100000 nM
TGI (DU-145 prostate): > 100000 nM
TGI (MDA-MB-231 breast): > 100000 nM
TGI (HL-60(TB) leukemia): > 100000 nM
TGI (SN12C renal): > 100000 nM
TGI (MOLT-4 leukemia): > 100000 nM
TGI (EKVX NSCLC): > 100000 nM
TGI (SK-MEL-5 melanoma): > 100000 nM
TGI (SF-295 CNS): > 100000 nM
TGI (NCI-H522 lung): > 100000 nM
TGI (UACC-62 melanoma): > 100000 nM
TGI (OVCAR-4 ovarian): > 100000 nM
TGI (NCI-H460 lung): > 100000 nM
TGI (OVCAR-3 ovarian): > 100000 nM
TGI (K-562 leukemia): > 100000 nM
TGI (SF-268 CNS): > 100000 nM
TGI (IGROV1 ovarian): > 100000 nM
TGI (ACHN renal): > 100000 nM
TGI (UO-31 renal): > 100000 nM
TGI (RPMI-8226 leukemia): > 100000 nM
TGI (T-47D breast): > 100000 nM
TGI (NCI-H226 lung): > 100000 nM
TGI (HT29 colon): > 100000 nM
TGI (HCC-2998 colon): > 100000 nM
TGI (COLO 205 colon): > 100000 nM
TGI (NCI-H23 lung): > 100000 nM
TGI (A549 NSCLC): > 100000 nM
TGI (NCI/ADR-RES ovarian): > 100000 nM
TGI (SK-OV-3 ovarian): > 100000 nM

CC(C)CC(NC(=O)OC(C)(C)C)C(=O)NC(CCOCc1ccccc1)C(N)=O (stereo not drawn) (Boc-Leu-[hSer](Bn)-NH2; configuration not given here)
GI50 (HOP-92 NSCLC): 21.4 µg/mL
TGI (HOP-92 NSCLC): 57.4 µg/mL
GI50 (SK-OV-3 ovarian): 46.1 µg/mL

CC(C)C(=O)c1c(C(F)(F)F)n([O-])c2cc(F)c(F)cc2[n+]1=O
GI50 (PC-3 prostate): 521 nM
TGI (PC-3 prostate): 1130 nM
GI50 (RXF 393 renal): 456 nM
TGI (RXF 393 renal): 1190 nM
GI50 (HS 578T breast): 598 nM
TGI (HS 578T breast): 2640 nM
GI50 (U251 CNS): 200 nM
TGI (U251 CNS): 430 nM
GI50 (SNB-19 CNS): 1340 nM
TGI (SNB-19 CNS): 3080 nM
GI50 (BT-549 breast): 587 nM
TGI (BT-549 breast): 1900 nM
GI50 (SNB-75 CNS): 1080 nM
TGI (SNB-75 CNS): 2750 nM
GI50 (SW-620 colon): 130 nM
TGI (SW-620 colon): 277 nM
GI50 (MALME-3M melanoma): 693 nM
TGI (MALME-3M melanoma): 2210 nM
GI50 (KM12 colon): 1830 nM
TGI (KM12 colon): 4690 nM
GI50 (HOP-92 NSCLC): 191 nM
TGI (HOP-92 NSCLC): 972 nM
GI50 (SK-MEL-2 melanoma): 234 nM
TGI (SK-MEL-2 melanoma): 27800 nM
GI50 (M14 melanoma): 70.8 nM
TGI (M14 melanoma): 387 nM
GI50 (OVCAR-8 ovarian): 262 nM
TGI (OVCAR-8 ovarian): 850 nM
GI50 (SK-MEL-28 melanoma): 550 nM
TGI (SK-MEL-28 melanoma): 3150 nM
GI50 (MDA-MB-435): 724 nM
TGI (MDA-MB-435): 2150 nM
GI50 (SF-539 CNS): 381 nM
TGI (SF-539 CNS): 1000 nM
GI50 (A498 renal): 130 nM
TGI (A498 renal): 1330 nM
GI50 (HCT-15 colon): 147 nM
TGI (HCT-15 colon): 309 nM
GI50 (TK-10 renal): 976 nM
TGI (TK-10 renal): 2670 nM
GI50 (OVCAR-5 ovarian): 1240 nM
TGI (OVCAR-5 ovarian): 2580 nM
GI50 (UACC-257 melanoma): 2280 nM
TGI (UACC-257 melanoma): 6380 nM
GI50 (786-0 renal): 444 nM
TGI (786-0 renal): 970 nM
GI50 (CAKI-1 renal): 62.6 nM
TGI (CAKI-1 renal): 500 nM
GI50 (CCRF-CEM leukemia): 21.8 nM
TGI (CCRF-CEM leukemia): > 100000 nM
GI50 (HOP-62 NSCLC): 98.5 nM
TGI (HOP-62 NSCLC): 602 nM
GI50 (DU-145 prostate): 592 nM
TGI (DU-145 prostate): 1720 nM
GI50 (MDA-MB-231 breast): 176 nM
TGI (MDA-MB-231 breast): 770 nM
GI50 (SN12C renal): 288 nM
TGI (SN12C renal): 767 nM
GI50 (MOLT-4 leukemia): 93.3 nM
GI50 (EKVX NSCLC): 1530 nM
TGI (EKVX NSCLC): 3400 nM
GI50 (SK-MEL-5 melanoma): 197 nM
TGI (SK-MEL-5 melanoma): 609 nM
GI50 (SF-295 CNS): 1190 nM
TGI (SF-295 CNS): 2560 nM
GI50 (NCI-H522 lung): 1960 nM
TGI (NCI-H522 lung): 6220 nM
GI50 (UACC-62 melanoma): 666 nM
TGI (UACC-62 melanoma): 1920 nM
GI50 (OVCAR-4 ovarian): 842 nM
TGI (OVCAR-4 ovarian): 2890 nM
GI50 (NCI-H460 lung): 811 nM
TGI (NCI-H460 lung): 2810 nM
GI50 (OVCAR-3 ovarian): 667 nM
TGI (OVCAR-3 ovarian): 2010 nM
GI50 (SF-268 CNS): 400 nM
TGI (SF-268 CNS): 1050 nM
GI50 (IGROV1 ovarian): 161 nM
TGI (IGROV1 ovarian): 53700 nM
GI50 (ACHN renal): 155 nM
TGI (ACHN renal): 324 nM
GI50 (UO-31 renal): 568 nM
TGI (UO-31 renal): 1750 nM
GI50 (RPMI-8226 leukemia): 66.6 nM
TGI (RPMI-8226 leukemia): 12300 nM
GI50 (T-47D breast): 1260 nM
TGI (T-47D breast): 3960 nM
GI50 (NCI-H226 lung): 1260 nM
TGI (NCI-H226 lung): 2540 nM
GI50 (HT29 colon): 168 nM
TGI (HT29 colon): 547 nM
GI50 (HCC-2998 colon): 326 nM
TGI (HCC-2998 colon): 1370 nM
GI50 (COLO 205 colon): 427 nM
TGI (COLO 205 colon): 1660 nM
GI50 (NCI-H23 lung): 263 nM
TGI (NCI-H23 lung): 1160 nM
GI50 (A549 NSCLC): 1380 nM
TGI (A549 NSCLC): 4140 nM
GI50 (NCI/ADR-RES ovarian): 200 nM
TGI (NCI/ADR-RES ovarian): 545 nM
GI50 (SK-OV-3 ovarian): 1040 nM
TGI (SK-OV-3 ovarian): 2850 nM
